The values that follow come from EP1508617B1, “Method for stabilizing an alanine aminotransferase and the corresponding compositions” (SYSMEX CORPORATION, priority 1998, dated 1999).

Where two headings read alike, the source gives them in different places.

The target in the assay is T1, ALT (Homo sapiens, UniProt P24298).
T1 construct: purchased ASAHI CHEMICAL INDUSTRIES CO., LTD; T-71
T1 sequence (P24298 1-496): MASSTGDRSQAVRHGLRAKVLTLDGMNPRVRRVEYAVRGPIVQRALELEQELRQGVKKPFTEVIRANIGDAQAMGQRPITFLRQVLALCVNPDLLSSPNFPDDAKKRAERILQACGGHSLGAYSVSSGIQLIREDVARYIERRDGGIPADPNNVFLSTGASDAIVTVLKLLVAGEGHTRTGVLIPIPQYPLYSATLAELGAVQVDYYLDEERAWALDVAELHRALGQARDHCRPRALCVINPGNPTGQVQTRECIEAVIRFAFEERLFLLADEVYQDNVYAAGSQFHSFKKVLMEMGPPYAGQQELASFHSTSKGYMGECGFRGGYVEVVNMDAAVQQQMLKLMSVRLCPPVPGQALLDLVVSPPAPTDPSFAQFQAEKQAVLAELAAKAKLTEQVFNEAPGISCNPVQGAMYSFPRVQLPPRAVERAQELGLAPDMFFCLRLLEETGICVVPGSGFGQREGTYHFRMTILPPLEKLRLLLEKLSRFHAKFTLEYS
Put plainly: Stabilization effect of amino acids on ALT in control substance (residual activity after storage). Format: biochemical. Particulars: for remaining activity at 1000 µM: tyrosine 1 mmol/L; for activity at 10000 µM: 96 h; for remaining activity at 5000 µM: valine 5 mmol/L; for remaining activity at 20000 µM: valine 20 mmol/L; for remaining activity at 50000 µM: valine 50 mmol/L; for remaining activity at 100000 µM: valine 100 mmol/L. How it is done: Using a human serum base and a BSA base as a medium, control substances were prepared respectively by adding, as a stabilizer, no amino acid, valine (10 mmol/L) as amino acid, proline (10 mmol/L) or other amino acid (10 mmol/L, provided that 1 mmol/L in case of tyrosine) to the respective mediums and then adding, as an enzyme, ALT (about 100 U/L).
The respective control substances thus obtained were stored at 45°C for four days and the residual activity of ALT contained in the respective control substances was measured.
CO., LTD. (manufacturing No. T-71). Furthermore, the human serum base used herein is a human serum base prepared by previously subjecting human serum to a heat treatment at 56°C for four hours thereby to devitalize an endogenous enzyme, followed by sterilization by filtration using a membrane filter of 0.2 µm in a pore diameter. The BSA base used herein is BES buffer (20 mmol/L) containing 3W/V% BSA.
With regard to the residual activity of ALT, the residual activity of ALT was measured by using an ALT reagent L "KOKUSAI" manufactured by INTERNATIONAL REAGENTS CORPORATION.
Valine and r-ALT were added to a human serum base and a BSA base in the concentration of about 100 U/L and, after storage at 45°C for four days, the residual activity was measured.

Where [1] appears, read: read-out: Residual activity (%) of ALT, BSA base, amino acid 10 mmol/L, r-ALT about 100 U/L, stored at 45°C for four days (Example 1).
Where [2] appears, read: read-out: Residual activity (%) of ALT, Human serum base, amino acid 10 mmol/L, r-ALT about 100 U/L, stored at 45°C for four days (Example 1).
Setting [3] is: BSA base, amino acid 10 mmol/L, r-ALT about 100 U/L, stored at 45°C for four days (Example 1), read-out: Residual activity (%) of ALT.
[4] abbreviates: Human serum base, amino acid 10 mmol/L, r-ALT about 100 U/L, stored at 45°C for four days (Example 1), read-out: Residual activity (%) of ALT.
The mark [5] stands for this setting: BSA base, valine 0.5 mmol/L, 45°C for four days (Example 2).
Setting [6] is: BSA base, 45°C for four days (Example 2).
The mark [7] stands for this setting: Human serum base, 45°C for four days (Example 2).

For the compound `N[C@@H](Cc1ccc(O)cc1)C(=O)O` [Tyrosine], the remaining activity at 1000 µM runs as follows: (BSA base, r-ALT about 100 U/L, stored at 45°C for four days (Example 1)) 31%; (Human serum base, r-ALT about 100 U/L, stored at 45°C for four days (Example 1)) 18%.

As to `N[C@@H](CCC(=O)O)C(=O)O` [Glutamic acid], the remaining activity at 10000 µM is 28% under setting [1] and 15% under setting [2].

`CC(C)C[C@H](N)C(=O)O` [Leucine]: the activity at 10000 µM runs as follows: under setting [3], 28%; under setting [4], 20%.

For the compound `NCCCC[C@H](N)C(=O)O` [Lysine], the activity at 10000 µM reads like this: under setting [3], 31%; under setting [4], 20%.

Turning to `CC[C@H](C)[C@H](N)C(=O)O` [Isoleucine], the activity at 10000 µM runs as follows: under setting [3], 28%; under setting [4], 18%.

Regarding `N[C@@H](Cc1c[nH]c2ccccc12)C(=O)O` [Tryptophane], the activity at 10000 µM was found to be 30% under setting [3] and 18% under setting [4].

On to `CSCC[C@H](N)C(=O)O` [Methionine], for which the activity at 10000 µM came to 31% under setting [3] and 20% under setting [4].

In the case of `N[C@@H](CS)C(=O)O` [Cysteine], the activity at 10000 µM by setting is: under setting [3], 24%; under setting [4], 14%.

In the case of `NC(=O)C[C@H](N)C(=O)O` [Asparagine], the activity at 10000 µM is 25% under setting [3] and 14% under setting [4].

`C[C@@H](O)[C@H](N)C(=O)O` [Threonine]: the activity at 10000 µM is, setting by setting: under setting [3], 31%; under setting [4], 18%.

As for `N[C@@H](CO)C(=O)O` [Serine], the activity at 10000 µM stood at 32% under setting [3] and 19% under setting [4].

Turning to `C[C@H](N)C(=O)O` [Alanine], the activity at 10000 µM was found to be 28% under setting [3] and 15% under setting [4].

`NC(=O)CC[C@H](N)C(=O)O` [Glutamine]: the activity at 10000 µM under setting [3] worked out at 15% and the activity at 10000 µM under setting [4] worked out at 17%.

With `N[C@@H](Cc1ccccc1)C(=O)O` [phenylalanine], the activity at 10000 µM under setting [3] amounted to 31% and the activity at 10000 µM under setting [4] turned out to be 19%.

Consider `N[C@@H](Cc1c[nH]cn1)C(=O)O` [Histidine], for which the activity at 10000 µM runs as follows: under setting [3], 28%; under setting [4], 15%.

On to `N=C(N)NCCC[C@H](N)C(=O)O` [Arginine], for which the activity at 10000 µM by setting is: under setting [1], 30%; under setting [2], 18%.

For `NCC(=O)O` [Glycine], the activity at 10000 µM came out at 30% under setting [3] and 19% under setting [4].

Regarding `N[C@@H](CC(=O)O)C(=O)O` [Aspartic acid], the remaining activity at 10000 µM runs as follows: under setting [3], 23%; under setting [4], 13%.

For `CC(C)[C@H](N)C(=O)O` [Valine], the activity at 10000 µM under setting [3] turned out to be 62% and the activity at 10000 µM under setting [4] was 55%. Moreover, under setting [5], the “Residual activity (%) of ALT” value was 36%. Moreover, the remaining activity at 500 µM came out at 38% under setting [5] and 28% (Human serum base, valine 0.5 mmol/L, 45°C for four days (Example 2)). Besides, the remaining activity at 5000 µM under setting [6] came out at 46% and the remaining activity at 5000 µM under setting [7] was determined as 33%. The remaining activity at 10000 µM runs as follows: (BSA base, valine 10 mmol/L, 45°C for four days (Example 2), read-out: Residual activity (%) of ALT) 62%; (Human serum base, valine 10 mmol/L, 45°C for four days (Example 2), read-out: Residual activity (%) of ALT) 55%. The remaining activity at 20000 µM is, setting by setting: under setting [6], 65%; under setting [7], 56%. Further, the remaining activity at 50000 µM amounted to 64% under setting [6] and 56% under setting [7]. The same compound gave a remaining activity at 100000 µM under setting [6] of 65% and a remaining activity at 100000 µM under setting [7] of 55%.

Regarding `O=C(O)[C@@H]1CCCN1` [proline], the activity at 10000 µM came to 61% under setting [3] and 35% under setting [4].
